The text below walks through data of US10604554B2, “Double-acylated GLP-1 derivatives” (Novo Nordisk A/S, priority 2012, dated 2020).

Molecules are shown by their SMILES. Read-outs that look alike come from different tables or passages of the source.

For assay [1], the target named is T1, human GLP-1 receptor (Homo sapiens, UniProt P43220).
T1 construct: expressed in transfected cells; host or cells: BHK cells, clone FCW467-12A/KZ10-1 (parent line BHKTS13), further transfected with CRE luciferase
Put plainly: In vitro potency (CRE luciferase; whole cells). In kind it is cell-based. The arrangement: EC50/pM (ratio 1% HSA/0% HSA): unit not given here. The following applies: for EC50: BHK cells. The essentials:
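Stably transfected BHK cells carrying human GLP-1R and a CRE–firefly luciferase reporter, 5×10^3 cells/well in assay medium, run with 0% or 1% HSA in assay buffer.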

Assay [2] deals with T1, human GLP-1 receptor. Put plainly: GLP-1 receptor binding (SPA, displacement of 125I-GLP-1). Summed up: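 Membranes from a stably transfected hamster cell line, 5-10 ug protein/sample, with WGA SPA beads and [125I]-GLP-1(7-36)NH2 at 0.06 nM final. Incubated 120 min at 30 °C with shaking, then counted.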
In general terms: In a radioligand displacement assay an active substance lowers the binding of a labelled ligand.

[3] abbreviates: In vitro potency (CRE luciferase) EC50 (1% HSA), 1% HSA.
[4] abbreviates: In vitro potency (CRE luciferase) EC50 (0% HSA), 0% HSA.
Setting [5] is: Receptor binding affinity IC50 (high HSA), 2.0% HSA (high albumin).
[6] abbreviates: Receptor binding affinity IC50 (low HSA), 0.001% HSA (low albumin).

T1 sequence (P43220 24-463): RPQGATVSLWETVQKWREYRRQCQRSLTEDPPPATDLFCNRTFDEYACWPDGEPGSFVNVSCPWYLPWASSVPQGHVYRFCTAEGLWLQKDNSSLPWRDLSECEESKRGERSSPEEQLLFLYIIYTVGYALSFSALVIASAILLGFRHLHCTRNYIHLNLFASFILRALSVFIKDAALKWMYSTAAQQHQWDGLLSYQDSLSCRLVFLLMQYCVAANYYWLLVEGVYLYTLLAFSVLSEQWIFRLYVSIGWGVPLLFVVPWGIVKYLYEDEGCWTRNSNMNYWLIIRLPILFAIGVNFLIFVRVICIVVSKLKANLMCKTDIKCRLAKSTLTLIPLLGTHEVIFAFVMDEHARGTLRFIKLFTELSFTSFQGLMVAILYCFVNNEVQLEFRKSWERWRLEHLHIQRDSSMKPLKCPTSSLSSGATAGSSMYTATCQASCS

A word on the EC50: it is the concentration giving half of the maximal effect. In general, IC50 refers to the midpoint of a concentration-inhibition curve. `CC[C@H](C)[C@H](NC(=O)[C@H](Cc1ccccc1)NC(=O)[C@H](CCC(=O)O)NC(=O)[C@H](CCCCNC(=O)[C@@H](N)CCCCNC(=O)[C@@H](N)CCCCNC(=O)CC[C@H](NC(=O)CCCCCCCCCCCCC(=O)O)C(=O)O)NC(=O)[C@H](C)NC(=O)[C@H](C)NC(=O)[C@H](CCC(N)=O)NC(=O)CNC(=O)[C@H](CCC(=O)O)NC(=O)[C@H](CC(C)C)NC(=O)[C@H](Cc1ccc(O)cc1)NC(=O)[C@H](CO)NC(=O)[C@H](CO)NC(=O)[C@@H](NC(=O)[C@H](CC(=O)O)NC(=O)[C@H](CO)NC(=O)[C@@H](NC(=O)[C@H](Cc1ccccc1)NC(=O)[C@@H](NC(=O)CNC(=O)[C@H](CCC(=O)O)NC(=O)C(C)(C)NC(=O)[C@@H](N)Cc1c[nH]cn1)[C@@H](C)O)[C@@H](C)O)C(C)C)C(=O)N[C@@H](C)C(=O)N[C@@H](Cc1c[nH]c2ccccc12)C(=O)N[C@@H](CC(C)C)C(=O)N[C@H](C(=O)N[C@@H](CCCNC(=N)N)C(=O)NCC(=O)N[C@@H](CCCNC(=N)N)C(=O)N[C@@H](CCCCNC(=O)[C@@H](N)CCCCNC(=O)[C@@H](N)CCCCNC(=O)CC[C@H](NC(=O)CCCCCCCCCCCCC(=O)O)C(=O)O)C(=O)O)C(C)C` [Example 2, N^ε26-[(2S)-2-amino-6-[[(2S)-2-amino-6-[[(4S)-4-carboxy-4-(13-carboxytridecanoylamino)butanoyl]amino]hexanoyl]amino]hexanoyl], N^ε37-[(2S)-2-amino-6-[[(2S)-2-amino-6-[[(4S)-4-carboxy-4-(13-carboxytridecanoylamino)butanoyl]amino]hexanoyl]amino]hexanoyl]-[Aib^8,Arg^34,Lys^37]-GLP-1-(7-37)-peptide]: on human GLP-1 receptor [1] (setting [3]), the EC50 was 0.059 nM. The IC50 at human GLP-1 receptor [2] (0.001% HSA (low albumin), read-out: Receptor binding affinity IC50 (low HSA)) came to 0.24 nM; at human GLP-1 receptor [2] (2.0% HSA (high albumin), read-out: Receptor binding affinity IC50 (high HSA)), 29 nM.

As for `CC[C@H](C)[C@H](NC(=O)[C@H](Cc1ccccc1)NC(=O)[C@H](CCC(=O)O)NC(=O)[C@H](CCCCNC(=O)[C@@H](N)CCCCNC(=O)COCCOCCNC(=O)COCCOCCNC(=O)CC[C@H](NC(=O)CCCCCCCCCOc1ccc(C(=O)O)cc1)C(=O)O)NC(=O)[C@H](C)NC(=O)[C@H](C)NC(=O)[C@H](CCC(N)=O)NC(=O)CNC(=O)[C@H](CCC(=O)O)NC(=O)[C@H](CC(C)C)NC(=O)[C@H](Cc1ccc(O)cc1)NC(=O)[C@H](CO)NC(=O)[C@H](CO)NC(=O)[C@@H](NC(=O)[C@H](CC(=O)O)NC(=O)[C@H](CO)NC(=O)[C@@H](NC(=O)[C@H](Cc1ccccc1)NC(=O)[C@@H](NC(=O)CNC(=O)[C@H](CCC(=O)O)NC(=O)C(C)(C)NC(=O)[C@@H](N)Cc1c[nH]cn1)[C@@H](C)O)[C@@H](C)O)C(C)C)C(=O)N[C@@H](C)C(=O)N[C@@H](Cc1c[nH]c2ccccc12)C(=O)N[C@@H](CC(C)C)C(=O)N[C@H](C(=O)N[C@@H](CCCNC(=N)N)C(=O)NCC(=O)N[C@@H](CCCNC(=N)N)C(=O)N[C@@H](CCCCNC(=O)[C@@H](N)CCCCNC(=O)COCCOCCNC(=O)COCCOCCNC(=O)CC[C@H](NC(=O)CCCCCCCCCOc1ccc(C(=O)O)cc1)C(=O)O)C(=O)O)C(C)C` [Example 5], the values for the half-maximal effective concentration (EC50) on human GLP-1 receptor [1] (setting [4]) and at human GLP-1 receptor [1] (setting [3]) were 0.0054 nM and 0.033 nM, respectively. Moreover, the IC50 came to 64 nM on human GLP-1 receptor [2] (setting [5]) and 1.03 nM at human GLP-1 receptor [2] (setting [6]).

Take `CC[C@H](C)[C@H](NC(=O)[C@H](Cc1ccccc1)NC(=O)[C@H](CCC(=O)O)NC(=O)[C@H](CCCCNC(=O)[C@@H](N)CCCCNC(=O)CC[C@H](NC(=O)CC[C@H](NC(=O)CC[C@H](NC(=O)CCCCCCCCCCCOc1ccc(C(=O)O)cc1)C(=O)O)C(=O)O)C(=O)O)NC(=O)[C@H](C)NC(=O)[C@H](C)NC(=O)[C@H](CCC(N)=O)NC(=O)CNC(=O)[C@H](CCC(=O)O)NC(=O)[C@H](CC(C)C)NC(=O)[C@H](Cc1ccc(O)cc1)NC(=O)[C@H](CO)NC(=O)[C@H](CO)NC(=O)[C@@H](NC(=O)[C@H](CC(=O)O)NC(=O)[C@H](CO)NC(=O)[C@@H](NC(=O)[C@H](Cc1ccccc1)NC(=O)[C@@H](NC(=O)CNC(=O)[C@H](CCC(=O)O)NC(=O)C(C)(C)NC(=O)[C@@H](N)Cc1c[nH]cn1)[C@@H](C)O)[C@@H](C)O)C(C)C)C(=O)N[C@@H](C)C(=O)N[C@@H](Cc1c[nH]c2ccccc12)C(=O)N[C@@H](CC(C)C)C(=O)N[C@H](C(=O)N[C@@H](CCCNC(=N)N)C(=O)NCC(=O)N[C@@H](CCCNC(=N)N)C(=O)N[C@@H](CCCCNC(=O)[C@@H](N)CCCCNC(=O)CC[C@H](NC(=O)CC[C@H](NC(=O)CC[C@H](NC(=O)CCCCCCCCCCCOc1ccc(C(=O)O)cc1)C(=O)O)C(=O)O)C(=O)O)C(=O)O)C(C)C` [Example 17, N^ε26-[(2S)-2-amino-6-[[(4S)-4-carboxy-4-[[(4S)-4-carboxy-4-[[(4S)-4-carboxy-4-[12-(4-carboxyphenoxy)dodecanoylamino]butanoyl]amino]butanoyl]amino]butanoyl]amino]hexanoyl], N^ε37-[(2S)-2-amino-6-[[(4S)-4-carboxy-4-[[(4S)-4-carboxy-4-[[(4S)-4-carboxy-4-[12-(4-carboxyphenoxy)dodecanoylamino]butanoyl]amino]butanoyl]amino]butanoyl]amino]hexanoyl]-[Aib^8,Arg^34,Lys^37]-GLP-1-(7-37)-peptide]: the EC50 at human GLP-1 receptor [1] (setting [4]) was 0.0033 nM. For the same compound, the IC50 on human GLP-1 receptor [2] (setting [5]) came to 632 nM; on human GLP-1 receptor [2] (setting [6]), 0.42 nM.

As for `CC[C@H](C)[C@H](NC(=O)[C@H](Cc1ccccc1)NC(=O)[C@H](CCC(=O)O)NC(=O)[C@H](CCCCNC(=O)[C@@H](N)CCCCNC(=O)COCCOCCNC(=O)COCCOCCNC(=O)CC[C@H](NC(=O)CCCCCCCCCCCOc1ccc(C(=O)O)cc1)C(=O)O)NC(=O)[C@H](C)NC(=O)[C@H](C)NC(=O)[C@H](CCC(N)=O)NC(=O)CNC(=O)[C@H](CCC(=O)O)NC(=O)[C@H](CC(C)C)NC(=O)[C@H](Cc1ccc(O)cc1)NC(=O)[C@H](CO)NC(=O)[C@H](CO)NC(=O)[C@@H](NC(=O)[C@H](CC(=O)O)NC(=O)[C@H](CO)NC(=O)[C@@H](NC(=O)[C@H](Cc1ccccc1)NC(=O)[C@@H](NC(=O)CNC(=O)[C@H](CCC(=O)O)NC(=O)C(C)(C)NC(=O)[C@@H](N)Cc1c[nH]cn1)[C@@H](C)O)[C@@H](C)O)C(C)C)C(=O)N[C@@H](C)C(=O)N[C@@H](Cc1c[nH]c2ccccc12)C(=O)N[C@@H](CC(C)C)C(=O)N[C@H](C(=O)N[C@@H](CCCNC(=N)N)C(=O)NCC(=O)N[C@@H](CCCNC(=N)N)C(=O)N[C@@H](CCCCNC(=O)[C@@H](N)CCCCNC(=O)COCCOCCNC(=O)COCCOCCNC(=O)CC[C@H](NC(=O)CCCCCCCCCCCOc1ccc(C(=O)O)cc1)C(=O)O)C(=O)O)C(C)C` [Example 14, N^ε26-[(2S)-2-amino-6-[[2-[2-[2-[[2-[2-[2-[[(4S)-4-carboxy-4-[12-(4-carboxyphenoxy)dodecanoylamino]butanoyl]amino]ethoxy]ethoxy]acetyl]amino]ethoxy]ethoxy]acetyl]amino]hexanoyl], N^ε37-[(2S)-2-amino-6-[[2-[2-[2-[[2-[2-[2-[[(4S)-4-carboxy-4-[12-(4-carboxyphenoxy)dodecanoylamino]butanoyl]amino]ethoxy]ethoxy]acetyl]amino]ethoxy]ethoxy]acetyl]amino]hexanoyl]-[Aib^8,Arg^34, Lys^37]-GLP-1-(7-37)-peptide], the EC50 on human GLP-1 receptor [1] (setting [4]) was 0.0048 nM; on human GLP-1 receptor [1] (setting [3]), 0.076 nM. In addition, at human GLP-1 receptor [1] (ratio of EC50 at 1% HSA to EC50 at 0% HSA), the “EC50/pM (ratio 1% HSA/0% HSA)” value amounted to 16. Also, the results for the IC50 at human GLP-1 receptor [2] (setting [5]) and at human GLP-1 receptor [2] (setting [6]) were 154 nM and 0.3 nM, respectively.
